From patent publication US11001577B2, “Pesticidally active azetidine sulfones amide isoxazoline derivatives” (SYNGENTA PARTICIPATIONS AG, priority 2016, dated 2021)

Assays:
Type in all cases: in vivo
Diabrotica balteata = Diabrotica balteata (corn root worm), maize sprouts sprayed; conditions: 96 h, application rate 200 ppm, L2 larvae, 4 days after infestation, read-out: effect in at least one of the two categories (mortality or growth inhibition)
Protocol: Diabrotica balteata (Corn Root Worm)
Maize sprouts placed onto an agar layer in 24-well microtiter plates were treated with aqueous test solutions prepared from 10,000 ppm DMSO stock solutions by spraying. After drying, the plates were infested with L2 larvae (6 to 10 per well). The samples were assessed for mortality and growth inhibition in comparison to untreated samples 4 days after infestation.

Euschistus heros = Euschistus heros (neotropical brown stink bug), soybean leaves sprayed; conditions: 120 h, application rate 200 ppm, N2 nymphs, 5 days after infestation, read-out: effect in at least one of the two categories (mortality or growth inhibition)
Protocol: Euschistus heros (Neotropical Brown Stink Bug)
Soybean leaves on agar in 24-well microtiter plates were sprayed with aqueous test solutions prepared from 10,000 ppm DMSO stock solutions. After drying the leaves were infested with N2 nymphs. The samples were assessed for mortality and growth inhibition in comparison to untreated samples 5 days after infestation.

Plutella xylostella = Plutella xylostella (diamond back moth), artificial diet; conditions: 120 h, application rate 200 ppm, L2 larvae, 5 days after infestation, read-out: effect in at least one of the two categories (mortality or growth inhibition)
Protocol: Plutella xylostella (Diamond Back Moth)
24-well microtiter plates with artificial diet were treated with aqueous test solutions prepared from 10,000 ppm DMSO stock solutions by pipetting. After drying, the plates were infested with L2 larvae (10 to 15 per well). The samples were assessed for mortality and growth inhibition in comparison to untreated samples 5 days after infestation.

Spodoptera littoralis = Spodoptera littoralis (Egyptian cotton leaf worm), cotton leaf discs; conditions: foliar, 72 h, application rate 200 ppm, L1 larvae, 3 days after infestation
Protocol: Spodoptera littoralis (Egyptian Cotton Leaf Worm)
Cotton leaf discs were placed onto agar in 24-well microtiter plates and sprayed with aqueous test solutions prepared from 10,000 ppm DMSO stock solutions. After drying the leaf discs were infested with five L1 larvae. The samples were assessed for mortality, anti-feeding effect, and growth inhibition in comparison to untreated samples 3 days after infestation. Control of Spodoptera littoralis by a test sample is given when at least one of the categories mortality, anti-feedant effect, and growth inhibition is higher than the untreated sample.

Tetranychus urticae = Tetranychus urticae (two-spotted spider mite) feeding/contact activity; conditions: 192 h, application rate 200 ppm, 8 days after infestation, read-out: mortality on mixed population (mobile stages)
Protocol: Tetranychus urticae (Two-Spotted Spider Mite):Feeding/Contact Activity
Bean leaf discs on agar in 24-well microtiter plates were sprayed with aqueous test solutions prepared from 10,000 ppm DMSO stock solutions. After drying the leaf discs were infested with a mite population of mixed ages. The samples were assessed for mortality on mixed population (mobile stages) 8 days after infestation.

Thrips tabaci = Thrips tabaci (onion thrips) feeding/contact activity; conditions: 144 h, application rate 200 ppm, mixed ages, 6 days after infestation, read-out: mortality
Protocol: Thrips tabaci (Onion Thrips) Feeding/Contact Activity
Sunflower leaf discs were placed on agar in 24-well microtiter plates and sprayed with aqueous test solutions prepared from 10,000 ppm DMSO stock solutions. After drying the leaf discs were infested with a thrips population of mixed ages. The samples were assessed for mortality 6 days after infestation.

Cc1cc(C2=NO[C@@](c3cc(Cl)cc(Cl)c3)(C(F)(F)F)C2)ccc1C(=O)NC1CN(S(=O)(=O)C2CC2)C1 [Compound A04, N-(1-cyclopropylsulfonylazetidin-3-yl)-4-[(5S)-5-(3,5-dichlorophenyl)-5-(trifluoromethyl)-4H-isoxazol-3-yl]-2-methyl-benzamide]
≥ 80%: percent effect (mortality or growth inhibition) at 200 ppm (Diabrotica balteata) | percent effect (mortality or growth inhibition) at 200 ppm (Euschistus heros) | percent effect (mortality or growth inhibition) at 200 ppm (Plutella xylostella) | percent control (mortality, anti-feedant effect or growth inhibition) at 200 ppm (Spodoptera littoralis) | mortality at 200 ppm (Tetranychus urticae)

Cc1cc(C2=NO[C@@](c3cc(Cl)cc(C(F)(F)F)c3)(C(F)(F)F)C2)ccc1C(=O)NC1CN(S(=O)(=O)OCC(F)(F)F)C1 [Compound A18, 2,2,2-trifluoroethyl 3-[[4-[(5S)-5-[3-chloro-5-(trifluoromethyl)phenyl]-5-(trifluoromethyl)-4H-isoxazol-3-yl]-2-methyl-benzoyl]amino]azetidine-1-sulfonate]
≥ 80%: percent effect (mortality or growth inhibition) at 200 ppm (Diabrotica balteata) | percent effect (mortality or growth inhibition) at 200 ppm (Euschistus heros) | percent effect (mortality or growth inhibition) at 200 ppm (Plutella xylostella) | percent control (mortality, anti-feedant effect or growth inhibition) at 200 ppm (Spodoptera littoralis) | mortality at 200 ppm (Tetranychus urticae) | mortality at 200 ppm (Thrips tabaci)
